Results published in patent US20050118109A1, “Method for treating lung diseases associated with ventilation-perfusion mismatches” (priority 2003, published 2005).

Experiments:
[1] = test system: arthritis in an experimental model; conditions: treatment with VIP; cited from earlier work
[2] = test system: pulmonary vascular system; conditions: in vivo; cited from earlier work
Type I binding sites = target: T1, Type I binding sites (Homo sapiens, UniProt P41586); conditions: cited from earlier work
T1 sequence (P41586 21-468): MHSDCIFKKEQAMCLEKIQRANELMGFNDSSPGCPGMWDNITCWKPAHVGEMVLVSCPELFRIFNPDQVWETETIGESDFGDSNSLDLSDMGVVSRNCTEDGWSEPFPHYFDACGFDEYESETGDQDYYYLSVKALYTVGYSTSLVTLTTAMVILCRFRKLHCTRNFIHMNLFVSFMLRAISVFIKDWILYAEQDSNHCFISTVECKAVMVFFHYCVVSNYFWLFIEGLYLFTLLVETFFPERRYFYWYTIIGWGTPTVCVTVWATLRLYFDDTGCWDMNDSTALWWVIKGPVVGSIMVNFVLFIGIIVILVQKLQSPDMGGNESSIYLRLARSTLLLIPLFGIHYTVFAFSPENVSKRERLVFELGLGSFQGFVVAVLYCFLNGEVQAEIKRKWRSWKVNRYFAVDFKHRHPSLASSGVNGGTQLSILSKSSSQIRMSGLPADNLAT

[3] = test system: patient with chronic bronchitis with V/Q-mismatch; test: Inhalation of VIP by patient No. 4: chronic bronchitis with V/Q-mismatch, no bronchial obstruction; format: in vivo, human
[4] = patient No. 4, after 1 and 2 days of inhalation

## His-Ser-Asp-Ala-Val-Phe-Thr-Asp-Asn-Tyr-Thr-Arg-Leu-Arg-Lys-Gln-Met-Ala-Val-Lys-Lys-Tyr-Leu-Asn-Ser-Ile-Leu-Asn [VIP]
[1]
  incidence and severity of arthritis: reduce significantly
  joint swelling and destruction of cartilage and bone: completely abrogating
[2]
  resistance in the pulmonary vascular system: decrease the resistance
Type I binding sites
  affinity for type I binding sites: much lower affinity
[3]; [4]
  pulmonary gas exchange in lung function analysis: completely normal pulmonary gas exchange
  severe decrease of paO2 caused by V/Q-mismatch: significantly ameliorated
[3]; patient No. 4, after inhalation of VIP
  V/Q-mismatch: totally removed
